Assay: xn = mol fraction of the nth substance listed

CC1CCCCC1 + CCCO
303.15 K, 101.33 kPa
Conditions | viscosity [mPa·s]
x1 = 0.0998 | 1.42
x1 = 0.2182 | 1.188
x1 = 0.4212 | 0.918
x1 = 0.576 | 0.777
x1 = 0.7398 | 0.677
x1 = 0.9 | 0.637

CCCNCCC + CCCO
viscosity [mPa·s], 101.33 kPa
Conditions | x1 = 0.1059 | x1 = 0.2109 | x1 = 0.3116 | x1 = 0.401 | x1 = 0.513 | x1 = 0.5913 | x1 = 0.7036 | x1 = 0.8073 | x1 = 0.885
303.15 K | 1.601 | 1.425 | 1.268 | 1.138 | 0.994 | 0.8936 | 0.7675 | 0.6649 | 0.5972
313.15 K | 1.261 | 1.126 | 1.009 | 0.8968 | 0.7829 | 0.7121 | 0.6195 | 0.5442 | 0.4899

CCOC(=O)c1ccccc1 + CCCO
viscosity [mPa·s], 101.3 kPa
Conditions | x1 = 0.0548 | x1 = 0.1155 | x1 = 0.1829 | x1 = 0.2582 | x1 = 0.3431 | x1 = 0.4393 | x1 = 0.5493 | x1 = 0.6763 | x1 = 0.8246
303 K | 1.619 | 1.637 | 1.645 | 1.657 | – | 1.688 | 1.703 | 1.72 | 1.734
308 K | 1.471 | 1.486 | 1.499 | 1.51 | 1.525 | 1.537 | 1.552 | 1.568 | 1.579
313 K | 1.326 | 1.337 | 1.351 | 1.364 | 1.372 | 1.386 | 1.403 | 1.414 | 1.432
318 K | 1.235 | 1.247 | 1.257 | 1.272 | 1.28 | 1.291 | 1.302 | 1.314 | 1.327
323 K | 1.175 | 1.188 | 1.194 | 1.205 | 1.21 | 1.219 | 1.227 | 1.235 | 1.244

O=C(O)c1cccc([N+](=O)[O-])c1 + CCCO
viscosity [mPa·s], 101 kPa
Conditions | x1 = 0.219 | x1 = 0.22 | x1 = 0.244 | x1 = 0.261 | x1 = 0.2797 | x1 = 0.2805
318.15 K | 3.007 | 3.007 | 3.286 | 3.62 | 3.951 | 3.95
323.15 K | 2.632 | – | – | – | – | 3.456

CCCNCCC + CCCOCCO
viscosity [mPa·s], 101.33 kPa
Conditions | 298.15 K | 308.15 K | 318.15 K
x2 = 0.0247 | 0.53 | 0.463 | 0.401
x2 = 0.075 | 0.592 | 0.511 | 0.435
x2 = 0.125 | 0.657 | 0.564 | 0.473
x2 = 0.1902 | 0.753 | 0.636 | 0.529
x2 = 0.2692 | 0.889 | 0.737 | 0.602
x2 = 0.3692 | 1.09 | 0.883 | 0.709
x2 = 0.4334 | 1.228 | 0.985 | 0.782
x2 = 0.476 | 1.329 | 1.058 | 0.833
x2 = 0.5289 | 1.463 | 1.153 | 0.903
x2 = 0.623 | 1.686 | 1.318 | 1.021
x2 = 0.723 | 1.94 | 1.507 | 1.157
x2 = 0.8063 | 2.136 | 1.656 | 1.269
x2 = 0.9114 | 2.293 | 1.78 | 1.362
x2 = 0.9598 | 2.322 | 1.846 | 1.413
x2 = 0.9731 | 2.333 | 1.863 | 1.428

CC(C)O + CCO
101 kPa
Conditions | viscosity [mPa·s]
298.15 K, x2 = 0.214 | 1.796
298.15 K, x2 = 0.393 | 1.607
298.15 K, x2 = 0.565 | 1.445
298.15 K, x2 = 0.725 | 1.299
298.15 K, x2 = 0.869 | 1.182
308.15 K, x2 = 0.5 | 1.186
313.15 K, x2 = 0.5 | 1.066
318.15 K, x2 = 0.5 | 0.9542

CCCNCCC + CCO
viscosity [mPa·s], 101.33 kPa
Conditions | x1 = 0.0942 | x1 = 0.1946 | x1 = 0.3116 | x1 = 0.4115 | x1 = 0.5186 | x1 = 0.6176 | x1 = 0.7061 | x1 = 0.8005 | x1 = 0.9058
303.15 K | 1.05 | 1.048 | 0.9952 | 0.9229 | 0.8291 | 0.7485 | 0.6803 | 0.6208 | 0.56
313.15 K | 0.8212 | 0.7926 | 0.7448 | 0.6985 | 0.6485 | 0.5986 | 0.5562 | 0.51 | 0.4624

CNS(C)(=O)=O + CCO
303.15 K, 101.33 kPa
Conditions | viscosity [mPa·s]
x1 = 0.1006 | 1.105
x1 = 0.201 | 1.3
x1 = 0.2995 | 1.58
x1 = 0.3949 | 1.871
x1 = 0.4923 | 2.303
x1 = 0.5949 | 2.888
x1 = 0.6892 | 3.612
x1 = 0.7757 | 4.493
x1 = 0.8905 | 6.09

COc1ccc(/C=C/C(=O)c2ccccc2)cc1 + CCO
viscosity [mPa·s], 101 kPa
Conditions | x1 = 0.000144 | x1 = 0.000288 | x1 = 0.0005755 | x1 = 0.00115 | x1 = 0.002298 | x1 = 0.004586
298.15 K | 1.12 | 1.173 | 1.263 | 1.34 | 1.364 | 1.439
303.15 K | 1.019 | 1.072 | 1.162 | 1.239 | 1.263 | 1.338
308.15 K | 0.9181 | 0.971 | 1.061 | 1.138 | 1.162 | 1.237

O=C(C=Cc1ccccc1)c1ccccc1 + CCO
viscosity [mPa·s], 101 kPa
Conditions | x1 = 0.000144 | x1 = 0.000288 | x1 = 0.0005755 | x1 = 0.00115 | x1 = 0.002298 | x1 = 0.004586
298.15 K | 1.102 | 1.141 | 1.216 | 1.256 | 1.283 | 1.356
303.15 K | 1.01 | 1.049 | 1.115 | 1.156 | 1.181 | 1.255
308.15 K | 0.9181 | 0.9561 | 1.014 | 1.056 | 1.079 | 1.154

CCOC(=O)c1ccccc1 + CCOC(C)=O
298.15 K, 101 kPa
Conditions | viscosity [mPa·s]
x2 = 0.1216 | 1.704
x2 = 0.2088 | 1.514
x2 = 0.3131 | 1.292
x2 = 0.3973 | 1.157
x2 = 0.5044 | 0.9851
x2 = 0.5998 | 0.8478
x2 = 0.6989 | 0.7247
x2 = 0.7997 | 0.6178
x2 = 0.8992 | 0.5188

CCn1cc[n+](C)c1.N#C[S-] + CCOS(=O)(=O)[O-].CC[n+]1ccn(C)c1
100 kPa
Conditions | viscosity [mPa·s]
298.15 K, x2 = 0.0495 | 24.95
323.15 K, x2 = 0.571 | 25.65

Cc1ccccc1[N+](=O)[O-] + CN1CCC[C@H]1c1cccnc1
viscosity [mPa·s], 101.33 kPa
Conditions | x2 = 0.1058 | x2 = 0.2027 | x2 = 0.2928 | x2 = 0.4027 | x2 = 0.4939 | x2 = 0.5968 | x2 = 0.6894 | x2 = 0.7864 | x2 = 0.8909
298.15 K | 2.229 | 2.424 | 2.583 | 2.775 | 3.008 | 3.117 | 3.335 | 3.47 | 3.697
323.15 K | 1.405 | 1.481 | 1.557 | 1.625 | 1.7 | 1.764 | 1.909 | 1.919 | 2.002
